Measured values from patent publication US20040048830A1, “Use of cortisol-sequestering agents for the treatment of hypercortisolaemia related disorders” (priority 2000, published 2004).
Where two headings read alike, the source gives them in different places. Marks after values point to notes of the source that are not given here.

How the values were obtained:
[1] = 1:1 cyclodextrin:cortisol complex in water, reported values; cited from earlier work
[2] = Isothermal titration calorimetry (microcalorimetry) of cortisol complex; type: binding; settings: 1:1 cortisol complex, microcalorimetry / ITC
Description: The interaction between a sequestering agent and cortisol can be analyzed by physical methods such as nuclear magnetic resonance spectroscopy (nmr) (Fielding, L.: Tetrahedron, 56 (34), 6151-6170, 2000) and microcalorimetry (Stoedeman M. and Wadsoe I.: Pure Appl. Chem., 67(7), 1059-68, 1995). These techniques also allow one to establish the selectivity of the binding to cortisol in comparison with the other endogenous steroidal compounds.
The association constants for complex formation are determined by performing a titration of cyclodextrin into cortisol and recording the UV spectrum as a function of the cyclodextrin/steroid ratio. The change in absorption of cortisol at 246 nm (Δ A) upon stepwise addition of cyclodextrin is recorded. The best fit line to the data give Ka for the cortisol-cyclodextrin complex (Liu Y, Li, B, You C-C, Wada, T, Inoue Y. J. Org. Chem., 2001, 66, 225-232). The UV methodology provides a fairly good estimate of the association constant when this constant is below 10^5 M^−1. The results used for the determination of the association constant for the binding of cortisol to γ-cyclodextrin, β-cyclodextrin and to 2 γ-cyclodextrin derivatives are shown in FIG. 1. […] This is because the chromophore in cortisol is relatively weak and instrument signal to noise issues prevented the preparation of sufficiently dilute solutions. […] The high cortisol binding constant for these γ-cyclodextrin derivatives indicates these derivatives to be potentially very active cortisol sequestering agents. An alternative, but more laborious, method for the determination of the cortisol association constant is by isothermal titration calorimetry (see Wiseman et al. […], 131-137), which can be used to determine the high Ka's more accurately.

[3] = UV titration of cyclodextrin into cortisol (absorbance at 246 nm); type: binding; settings: 1:1 cortisol:γ-cyclodextrin complex
Description: UV-visible spectroscopy was used to monitor the complex formation between cortisol and a library of cyclodextrin derivatives. The UV spectrum of cortisol contains an absorption band having a maximum at 246 nm. The intensity of the UV line at 246 nm decreases upon complexation of cortisol by addition of a cyclodextrin host molecule. The decrease in the absorbance of an aqueous solution of the guest molecule (cortisol) upon addition of a typical host molecule (like a cyclodextrin derivative) is taken as evidence that the guest molecule has moved from the polar aqueous environment to the usually less polar environment of the interior of the host molecule. The methodology is well established in the field of supramolecular chemistry (Tsukube, H. et al. In Comprehensive Supramolecular Chemistry: Physical Methods in Supramolecular Chemistry. Davies J E D, Ripmeester J A, (Eds) Elsevier, Oxford, 1996: Vol 8, pp 425-483).
The association constants for complex formation are determined by performing a titration of cyclodextrin into cortisol and recording the UV spectrum as a function of the cyclodextrin/steroid ratio. The change in absorption of cortisol at 246 nm (Δ A) upon stepwise addition of cyclodextrin is recorded. The best fit line to the data give Ka for the cortisol-cyclodextrin complex (Liu Y, Li, B, You C-C, Wada, T, Inoue Y. J. Org. Chem., 2001, 66, 225-232). […]

[4] = Urinary excretion of exogenous cortisol in the rat; type: in vivo, Lister hooded rats
Method: Two groups of four rats (Lister hooded rats, 300-320 g) were administered (intravenously) either […] of cortisol alone (Group I) or cortisol followed after 15 minutes by 6-per-deoxy-6-per-(2,3-dihydroxypropylthio)-γ-cyclodextrin (Org 26276) as a single intravenous dose of 20 mg/kg (Group II). Each rat was placed in a metabolic cage for the collection of urine. Urine samples were collected for the first 5 hours and thereafter for the remainder of 24 hours The collected urine samples were subjected to HPLC-MS (high pressure liquid chromatograpy on a Phenomenex Luna (50×2 mm; […]) column coupled to a PE Sciex API 3000 Mass Spectrometer). The limit of quantitation for cortisol in urine was 2.5 ng/ml and 10 ng/ml in plasma.

[5] = Urinary excretion of endogenous cortisol in the guinea pig; type: in vivo; settings: iv 5 mg/250 g
Method: In guinea piogs cortisol is endogenously produced, the basal level of which is approximately 120-150 ng/ml in plasma.

Compound: OC[C@H]1O[C@@H]2O[C@H]3[C@H](O)[C@@H](O)[C@@H](O[C@H]4[C@H](O)[C@@H](O)[C@@H](O[C@H]5[C@H](O)[C@@H](O)[C@@H](O[C@H]6[C@H](O)[C@@H](O)[C@@H](O[C@H]7[C@H](O)[C@@H](O)[C@@H](O[C@H]8[C@H](O)[C@@H](O)[C@@H](O[C@H]1[C@H](O)[C@H]2O)O[C@@H]8CO)O[C@@H]7CO)O[C@@H]6CO)O[C@@H]5CO)O[C@@H]4CO)O[C@@H]3CO [β-CD, β-cyclodextrin]
- Association Constant (Ka) [1]: 1720 to 3000 M⁻¹

Compound: OC[C@H]1O[C@@H]2O[C@H]3[C@H](O)[C@@H](O)[C@@H](O[C@H]4[C@H](O)[C@@H](O)[C@@H](O[C@H]5[C@H](O)[C@@H](O)[C@@H](O[C@H]6[C@H](O)[C@@H](O)[C@@H](O[C@H]7[C@H](O)[C@@H](O)[C@@H](O[C@H]8[C@H](O)[C@@H](O)[C@@H](O[C@H]9[C@H](O)[C@@H](O)[C@@H](O[C@H]1[C@H](O)[C@H]2O)O[C@@H]9CO)O[C@@H]8CO)O[C@@H]7CO)O[C@@H]6CO)O[C@@H]5CO)O[C@@H]4CO)O[C@@H]3CO [γ-CD, γ-cyclodextrin]
- Association Constant (Ka) [1]: 2240 M⁻¹

Compound: Per-2,6-methyl-β-CD
- Association Constant (Ka) [1]: 5910 M⁻¹

Compound: O=C(O)c1ccc(SCC2OC3OC4C(CSc5ccc(C(=O)O)cc5)OC(OC5C(CSc6ccc(C(=O)O)cc6)OC(OC6C(CSc7ccc(C(=O)O)cc7)OC(OC7C(CSc8ccc(C(=O)O)cc8)OC(OC8C(CSc9ccc(C(=O)O)cc9)OC(OC9C(CSc%10ccc(C(=O)O)cc%10)OC(OC%10C(CSc%11ccc(C(=O)O)cc%11)OC(OC2C(O)C3O)C(O)C%10O)C(O)C9O)C(O)C8O)C(O)C7O)C(O)C6O)C(O)C5O)C(O)C4O)cc1 (centres unmarked) [6-per-deoxy-6-per-(4-carboxyphenyl)thio-γ-cyclodextrin]
- Association Constant (Ka) [2]: ˜80,000^b M^−1

Compound: O=C(O)CCSC[C@H]1O[C@@H]2O[C@H]3[C@H](O)[C@@H](O)[C@@H](O[C@H]4[C@H](O)[C@@H](O)[C@@H](O[C@H]5[C@H](O)[C@@H](O)[C@@H](O[C@H]6[C@H](O)[C@@H](O)[C@@H](O[C@H]7[C@H](O)[C@@H](O)[C@@H](O[C@H]8[C@H](O)[C@@H](O)[C@@H](O[C@H]9[C@H](O)[C@@H](O)[C@@H](O[C@H]1[C@H](O)[C@H]2O)O[C@@H]9CSCCC(=O)O)O[C@@H]8CSCCC(=O)O)O[C@@H]7CSCCC(=O)O)O[C@@H]6CSCCC(=O)O)O[C@@H]5CSCCC(=O)O)O[C@@H]4CSCCC(=O)O)O[C@@H]3CSCCC(=O)O [6-per-deoxy-6-per-(2-carboxyethyl)thio-γ-cyclodextrin]
- Ka [3]: ~30,000 M^−1
- Association Constant (Ka) [2]: ~40,000 M^−1
- Association Constant (Ka) ([2]; listed as Per-6-deoxy-per-6-(2-carboxyethyl)thio-γ-cyclodextrin): 40000* M^−1

Compound: 6-per-deoxy-6-per-(2,3-dihydroxypropylthio)-γ-cyclodextrin [Org 26276]
- enhancement of excretion of cortisol compared to the control group ([4]; 20 mg/kg iv, versus group that received cortisol alone): approximately 10 fold
- mean cortisol level in the urine ([4]; iv cortisol followed after 15 minutes by 20 mg/kg iv, urine collected in the first 5 hours): 111 ± 78 ng/mL
- Ka ([3]; listed as Example 1): >100,000^a M^−1
- increase of amount of urinary cortisol excreted during 24 hours compared to the control group [5]: 3 fold

Compound: Per-6-acetyl-β-CD
- Association Constant (Ka) [1]: 3920 M⁻¹

Compound: Hydroxypropyl-β-CD
- Association Constant (Ka) [1]: 900 to 1000 M⁻¹

Compound: OC[C@H]1O[C@@H]2O[C@H]3[C@H](O)[C@@H](O)[C@@H](O[C@H]4[C@H](O)[C@@H](O)[C@@H](O[C@H]5[C@H](O)[C@@H](O)[C@@H](O[C@H]6[C@H](O)[C@@H](O)[C@@H](O[C@H]7[C@H](O)[C@@H](O)[C@@H](O[C@H]1[C@H](O)[C@H]2O)O[C@@H]7CO)O[C@@H]6CO)O[C@@H]5CO)O[C@@H]4CO)O[C@@H]3CO [α-CD]
- Association Constant (Ka) [1]: 57 M⁻¹
